From patent publication US20080027113A1, “Methods of Using and Compositions Comprising Immunomodulatory Compounds for Treatment and Management of Macular Degeneration” (priority 2003, published 2008)

Columns and labels:
[1] = test system: IL1β production; experiment: LPS-stimulated production of IL1β by PBMC; conditions: result in words
[2] = test system: patients with macular degeneration; experiment: Clinical study in patients with macular degeneration, adjuvant to photodynamic therapy with verteporfin; assay type: in vivo, human; conditions: about 10 mg/day for 20 weeks as adjuvant to verteporfin photodynamic therapy
Experimental: Immunomodulatory compounds are administered in an amount of about 0.1 to about 25 mg per day to patients with macular degeneration. In a specific embodiment, clinical studies are performed with forty patients with macular degeneration, who are divided into two groups. The first group receives conventional treatment for closing the leaking choroidal vessels (characteristic of this disease) by photodynamic therapy with verteporfin. Ophthalmol 1999 (117): 1329-1345.
Progressive visual loss follows which requires the photodynamic therapy to be repeated.

[3] = test system: IL10 production; experiment: Production of anti-inflammatory cytokine IL10 by PBMC; assay type: cell-based; conditions: result in words
[4] = test system: IL6 production; experiment: LPS-stimulated production of IL6 by PBMC; assay type: cell-based; conditions: result in words
[5] = test system: TNF-α production; experiment: Inhibition of TNF-α production following LPS-stimulation of human whole blood; assay type: cell-based; conditions: LPS-stimulated, read-out: IC50 for inhibiting production of TNF-α following LPS-stimulation of human whole blood
[6] = test system: TNF-α production; experiment: Inhibition of TNF-α production following LPS-stimulation of human PBMC; assay type: cell-based; conditions: for inhibition of LPS-stimulated production of TNF-α by PBMC: result in words; for IC50: human PBMC, LPS-stimulated, read-out: IC50 for inhibiting production of TNF-α following LPS-stimulation of PBMC

SMILES | inhibition of LPS-stimulated production of IL1β by PBMC [1] | effect on neovascular cascade / duration of photodynamic therapy effect [2] | production of the anti-inflammatory cytokine IL10 [3] | inhibition of LPS-stimulated production of IL6 by PBMC [4] | IC50 [5] | inhibition of LPS-stimulated production of TNF-α by PBMC [6] | IC50 [6]
Nc1cccc2c1CN(C1CCC(=O)NC1=O)C2=O (stereo not shown) | dose-dependent inhibition | sufficiently hindered | increased production | dose-dependent inhibition | ~480 nM | dose-dependent inhibition | ~100 nM
Nc1cccc2c1C(=O)N(C1CCC(=O)NC1=O)C2=O (stereo not shown) | dose-dependent inhibition |  | increased production | dose-dependent inhibition | ~25 nM | dose-dependent inhibition | ~24 nM
